Literature values in patent US6503396B2 (priority 2000, dated 2003).

What was measured:
breast cancer = breast cancer patients who exhibited no response to conventional anti-cancer drugs
lung cancer = lung cancer patients who exhibited no response to conventional anti-cancer drugs
ovarian cancer = ovarian cancer patients who exhibited no response to conventional anti-cancer drugs

## CC(=O)O[C@H]1C(=O)[C@@]2(C)[C@H]([C@H](OC(=O)c3ccccc3)[C@]3(O)C[C@H](OC(=O)[C@H](O)[C@@H](NC(=O)c4ccccc4)c4ccccc4)C(C)=C1C3(C)C)[C@]1(OC(C)=O)CO[C@@H]1C[C@@H]2O [taxol]
Breast cancer
  response rate to taxol: 50%
Lung cancer
  response rate to taxol: 20%
Ovarian cancer
  response rate to taxol: 30%
